Molecules are shown by their SMILES. Read-outs that look alike come from different tables or passages of the source. Positions of bridges follow the written chain, without caps; N, C: chain ends. Non-standard residues stand in square brackets, D forms with d. Residues, ends and D or L forms follow the SMILES beside them. *: point of attachment. Hydrocinnamoyl = O=C(CCc1ccccc1)*; X41 = O=S(=O)(c1ccc(Cl)cc1Cl)*; X3 = O=C(c1ccc(Cl)cc1Cl)*; Octanoyl = CCCCCCCC(=O)*; Orn = NCCC[C@H](N)C(=O)O; Dab = NCC[C@H](N)C(=O)O; Abu = CC[C@H](N)C(=O)O; Dap = NC[C@H](N)C(=O)O

The values that follow come from patent USRE48335E1, “Polymyxin derivatives as antimicrobial compounds” (priority 2014, dated 2020).

One experiment concerns Acinetobacter baumannii. In a few lines:
(§1)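 Using polymyxin B sulphate as comparator control, the trifluoroacetate-salt lipopeptides were assayed in CAMHB by broth microdilution to CLSI M100-S18, and MICs recorded.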

In a further experiment the test system is Enterobacter cloacae. In a few lines:
as §1

For another experiment, the system named is Pseudomonas aeruginosa. In a few lines:
as §1

Setting [1] is: Acinetobacter baumannii ATCC 17978, broth microdilution in CAMHB, TFA salt.
Setting [2] is: Acinetobacter baumannii ATCC 19606, broth microdilution in CAMHB, TFA salt.
Where [3] appears, read: Acinetobacter baumannii FADDI-AB034, broth microdilution in CAMHB, TFA salt.
The mark [4] stands for this setting: Enterobacter cloacae FADDI-EC001, broth microdilution in CAMHB, TFA salt.
Setting [5] is: Enterobacter cloacae FADDI-EC003, broth microdilution in CAMHB, TFA salt.
[6] abbreviates: Enterobacter cloacae FADDI-EC006, broth microdilution in CAMHB, TFA salt.
The mark [7] stands for this setting: Pseudomonas aeruginosa ATCC 27853, broth microdilution in CAMHB, TFA salt.
[8] abbreviates: Pseudomonas aeruginosa FADDI-PA022, broth microdilution in CAMHB, TFA salt.
Setting [9] is: Pseudomonas aeruginosa FADDI-PA025, broth microdilution in CAMHB, TFA salt.

Take `CC[C@@H]1NC(=O)[C@@H](CC(C)C)NC(=O)[C@H](CCN)NC(=O)[C@@H](NC(=O)[C@H](CN)NC(=O)[C@@H](NC(=O)[C@H](CCN)NC(=O)CCc2ccccc2)[C@@H](C)O)CCNC(=O)[C@H]([C@@H](C)O)NC(=O)[C@H](CCN)NC(=O)[C@H](CCN)NC1=O` [Compound 145] (Hydrocinnamoyl-[Dab]T[Dap][Dab][Dab][dL][Abu][Dab][Dab]T; lactam 4-C): the “Minimum inhibitory concentration (MIC), Ab ATCC 17978” value with Acinetobacter baumannii (setting [1]) was found to be 0.5 µg/mL. In the experiment with Acinetobacter baumannii (setting [2]), the “Minimum inhibitory concentration (MIC), Ab ATCC 19606” value was 1 µg/mL. Moreover, the “Minimum inhibitory concentration (MIC), Ab FADDI-AB034” value in the experiment on Acinetobacter baumannii (setting [3]) is 0.5 µg/mL. In addition, the “Minimum inhibitory concentration (MIC), Ec FADDI-EC001” value with Enterobacter cloacae (setting [4]) was found to be 0.5 µg/mL. Moreover, the “Minimum inhibitory concentration (MIC), Ec FADDI-EC003” value with Enterobacter cloacae (setting [5]) is <0.125 µg/mL. In the experiment on Enterobacter cloacae (setting [6]), the “Minimum inhibitory concentration (MIC), Ec FADDI-EC006” value is <0.125 µg/mL. For the same molecule, the “Minimum inhibitory concentration (MIC), Pa ATCC 27853” value with Pseudomonas aeruginosa (setting [7]) was 0.5 µg/mL. In the experiment with Pseudomonas aeruginosa (setting [8]), the “Minimum inhibitory concentration (MIC), Pa FADDI-PA022” value was found to be 0.5 µg/mL. Further, the “Minimum inhibitory concentration (MIC), Pa FADDI-PA025” value in the experiment with Pseudomonas aeruginosa (setting [9]) was 1 µg/mL.

`CC[C@@H]1NC(=O)[C@@H](CC(C)C)NC(=O)[C@H](CCN)NC(=O)[C@@H](NC(=O)[C@H](CCCN)NC(=O)[C@@H](NC(=O)[C@H](CCN)NC(=O)c2ccc(Cl)cc2Cl)[C@@H](C)O)CCNC(=O)[C@H]([C@@H](C)O)NC(=O)[C@H](CCN)NC(=O)[C@H](CCN)NC1=O` [Compound 147] (X3-[Dab]T[Orn][Dab][Dab][dL][Abu][Dab][Dab]T; lactam 4-C): in the experiment with Acinetobacter baumannii (setting [1]), the “Minimum inhibitory concentration (MIC), Ab ATCC 17978” value was found to be 4 µg/mL. In addition, the “Minimum inhibitory concentration (MIC), Ab ATCC 19606” value in the experiment with Acinetobacter baumannii (setting [2]) was 4 µg/mL. Also, in the experiment on Acinetobacter baumannii (setting [3]), the “Minimum inhibitory concentration (MIC), Ab FADDI-AB034” value is 2 µg/mL. In the experiment on Enterobacter cloacae (setting [4]), the “Minimum inhibitory concentration (MIC), Ec FADDI-EC001” value was <0.125 µg/mL. Moreover, the “Minimum inhibitory concentration (MIC), Ec FADDI-EC003” value in the experiment on Enterobacter cloacae (setting [5]) turned out to be 1 µg/mL. In addition, the “Minimum inhibitory concentration (MIC), Ec FADDI-EC006” value in the experiment with Enterobacter cloacae (setting [6]) is 1 µg/mL. Also, the “Minimum inhibitory concentration (MIC), Pa ATCC 27853” value with Pseudomonas aeruginosa (setting [7]) amounted to 1 µg/mL. The “Minimum inhibitory concentration (MIC), Pa FADDI-PA022” value with Pseudomonas aeruginosa (setting [8]) amounted to 1 µg/mL. The “Minimum inhibitory concentration (MIC), Pa FADDI-PA025” value in the experiment on Pseudomonas aeruginosa (setting [9]) was >32 µg/mL.

Regarding `CC[C@@H]1NC(=O)[C@@H](CC(C)C)NC(=O)[C@H](CCN)NC(=O)[C@@H](NC(=O)[C@H](CN)NC(=O)[C@@H](NC(=O)[C@H](CCN)NS(=O)(=O)c2ccc(Cl)cc2Cl)[C@@H](C)O)CCNC(=O)[C@H]([C@@H](C)O)NC(=O)[C@H](CCN)NC(=O)[C@H](CCN)NC1=O` [Compound 148] (X41-[Dab]T[Dap][Dab][Dab][dL][Abu][Dab][Dab]T; lactam 4-C), the “Minimum inhibitory concentration (MIC), Ab ATCC 17978” value in the experiment with Acinetobacter baumannii (setting [1]) came to 0.5 µg/mL. Besides, in the experiment with Acinetobacter baumannii (setting [2]), the “Minimum inhibitory concentration (MIC), Ab ATCC 19606” value was found to be 2 µg/mL. Further, the “Minimum inhibitory concentration (MIC), Ab FADDI-AB034” value with Acinetobacter baumannii (setting [3]) was 1 µg/mL. For the same molecule, the “Minimum inhibitory concentration (MIC), Ec FADDI-EC001” value in the experiment with Enterobacter cloacae (setting [4]) came out at 2 µg/mL. In addition, the “Minimum inhibitory concentration (MIC), Ec FADDI-EC003” value in the experiment on Enterobacter cloacae (setting [5]) came out at 4 µg/mL. For the same molecule, the “Minimum inhibitory concentration (MIC), Ec FADDI-EC006” value with Enterobacter cloacae (setting [6]) is 1 µg/mL. Besides, the “Minimum inhibitory concentration (MIC), Pa ATCC 27853” value with Pseudomonas aeruginosa (setting [7]) was 1 µg/mL. The “Minimum inhibitory concentration (MIC), Pa FADDI-PA022” value in the experiment on Pseudomonas aeruginosa (setting [8]) is 1 µg/mL. Moreover, the “Minimum inhibitory concentration (MIC), Pa FADDI-PA025” value in the experiment with Pseudomonas aeruginosa (setting [9]) was determined as 16 µg/mL.

For `CCCCCCCC(=O)N[C@@H](CCN)C(=O)N[C@H](C(=O)N[C@@H](CCN)C(=O)N[C@H]1CCCNC(=O)[C@H]([C@@H](C)O)NC(=O)[C@H](CCN)NC(=O)[C@H](CCN)NC(=O)[C@H]([C@@H](C)O)NC(=O)[C@@H](CC(C)C)NC(=O)[C@H](CCN)NC1=O)[C@@H](C)O` [Compound 149] (Octanoyl-[Dab]T[Dab][Orn][Dab][dL]T[Dab][Dab]T; lactam 4-C), in the experiment with Acinetobacter baumannii, the “Minimum inhibitory concentration (MIC), Ab ATCC 17978” value is >32 µg/mL; the “Minimum inhibitory concentration (MIC), Ab ATCC 19606” value is >32 µg/mL; the “Minimum inhibitory concentration (MIC), Ab FADDI-AB034” value is >32 µg/mL. Also, in the experiment on Enterobacter cloacae, the “Minimum inhibitory concentration (MIC), Ec FADDI-EC001” value was >32 µg/mL; the “Minimum inhibitory concentration (MIC), Ec FADDI-EC003” value was >32 µg/mL; the “Minimum inhibitory concentration (MIC), Ec FADDI-EC006” value was >32 µg/mL. In addition, in the experiment on Pseudomonas aeruginosa, the “Minimum inhibitory concentration (MIC), Pa ATCC 27853” value was >32 µg/mL; the “Minimum inhibitory concentration (MIC), Pa FADDI-PA022” value is >32 µg/mL; the “Minimum inhibitory concentration (MIC), Pa FADDI-PA025” value is >32 µg/mL.
